According to paper PMC6001238, “Iterative Chemical Engineering of Vancomycin Leads to Novel Vancomycin Analogs With a High in Vitro Therapeutic Index” (Frontiers in Microbiology, 2018):
Values after ≈ are worked out from the molar mass of the structure shown.

Assays:
S. aureus VISA/HIP5827 = experiment: MIC, broth microdilution, vancomycin-intermediate S. aureus VISA HIP5827; type: cell-based, Staphylococcus aureus; conditions: for MIC: Staphylococcus aureus VISA/HIP5827, read-out: MIC; for MIC-fold improvement vs. vancomycin: VISA/HIP5827, ratio of MIC of vancomycin and MIC of analogue
Procedure, shortened: (§1)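 Controls (ultrapure water; broth not inoculated) were included throughout CLSI-compliant broth microdilution. One condition supplemented analogue or comparator with 10 μM vancomycin, final level.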

MRSA KS1 = experiment: MIC, broth microdilution, MRSA KS1; type: cell-based, Staphylococcus aureus; conditions: for MIC-fold improvement vs. vancomycin: MRSA KS1, ratio of MIC of vancomycin and MIC of analogue; for MIC: Staphylococcus aureus MRSA KS1, read-out: MIC
Procedure, shortened: as §1

E. faecalis VRE 53 = experiment: MIC, broth microdilution, vancomycin-resistant E. faecalis VRE 53 (VanA); type: cell-based, Enterococcus faecalis; conditions: for MIC: Enterococcus faecalis VRE 53 (vancomycin-resistant), read-out: MIC; for MIC-fold improvement vs. vancomycin: VRE 53, ratio of MIC of vancomycin and MIC of analogue
Procedure, shortened: as §1

E. faecalis VRE 37 = experiment: MIC, broth microdilution, vancomycin-resistant E. faecalis VRE 37 (VanA); type: cell-based, Enterococcus faecalis; conditions: for MIC: Enterococcus faecalis VRE 37 (vancomycin-resistant), read-out: MIC
Procedure, shortened: as §1

E. faecalis VSE 1 = experiment: MIC, broth microdilution, vancomycin-sensitive E. faecalis (VSE 1); type: cell-based, Enterococcus faecalis; conditions: for MIC: Enterococcus faecalis VSE 1 (vancomycin-sensitive), read-out: MIC; for MIC-fold improvement vs. vancomycin: VSE 1, ratio of MIC of vancomycin and MIC of analogue
Procedure, shortened: as §1

[1] = test system: S. aureus VSSA (ATCC 6538); experiment: MIC, broth microdilution, vancomycin-sensitive S. aureus (VSSA/MSSA, ATCC 6538); type: cell-based, Staphylococcus aureus; conditions: for MIC: Staphylococcus aureus VSSA, read-out: MIC; for MIC-fold improvement vs. vancomycin: VSSA, ratio of MIC of vancomycin and MIC of analogue
Procedure, shortened: as §1

[2] = test system: Murine leukemia (L1210) cells; experiment: Cytostatic activity, L1210 cell proliferation; type: cell-based; conditions: mean ± SD of three experiments; highest concentration tested 250 µM; 2 days; read-out: Toxicity (IC50) L1210
Procedure, shortened: (§2)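 Coulter counter cell counts after 37°C culture with compound; IC50 = concentration giving 50% growth inhibition vs negative control. Incubation: L1210 2 d, CEM 3 d, HeLa 4 d. Suspension density before mixing with an equal volume of dilution: 300,000–500,000 cells/mL.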

MRSA KS89 = experiment: MIC, broth microdilution, MRSA KS89; type: cell-based, Staphylococcus aureus; conditions: for MIC-fold improvement vs. vancomycin: MRSA KS8, ratio of MIC of vancomycin and MIC of analogue; for MIC: Staphylococcus aureus MRSA KS8, read-out: MIC
Procedure, shortened: as §1

E. faecalis VRE 6 = experiment: MIC, broth microdilution, vancomycin-resistant E. faecalis VRE 6 (VanA); type: cell-based, Enterococcus faecalis; conditions: for MIC: Enterococcus faecalis VRE 6 (vancomycin-resistant), read-out: MIC; for MIC-fold improvement vs. vancomycin: VRE 6, ratio of MIC of vancomycin and MIC of analogue
Procedure, shortened: as §1

[3] = test system: human cervix carcinoma (HeLa) cells; experiment: Cytostatic activity, HeLa cell proliferation; type: cell-based; conditions: mean ± SD of three experiments; highest concentration tested 250 µM; 4 days; read-out: Toxicity (IC50) HeLa
Procedure, shortened: as §2

MRSA KS2 = experiment: MIC, broth microdilution, MRSA KS2; type: cell-based, Staphylococcus aureus; conditions: for MIC-fold improvement vs. vancomycin: MRSA KS2, ratio of MIC of vancomycin and MIC of analogue; for MIC: Staphylococcus aureus MRSA KS2, read-out: MIC
Procedure, shortened: as §1

MRSA KS6 = experiment: MIC, broth microdilution, MRSA KS6; type: cell-based, Staphylococcus aureus; conditions: for MIC-fold improvement vs. vancomycin: MRSA KS6, ratio of MIC of vancomycin and MIC of analogue; for MIC: Staphylococcus aureus MRSA KS6, read-out: MIC
Procedure, shortened: as §1

[4] = test system: L1210, CEM and HeLa cell lines; experiment: Cytostatic activity, average or summary over L1210, CEM and HeLa; type: cell-based; conditions: average of L1210, CEM and HeLa; read-out: Toxicity (IC50) Average
Procedure, shortened: as §2

E. faecalis VRE 29 = experiment: MIC, broth microdilution, vancomycin-resistant E. faecalis VRE 29 (VanA); type: cell-based, Enterococcus faecalis; conditions: for MIC: Enterococcus faecalis VRE 29 (vancomycin-resistant), read-out: MIC; for MIC-fold improvement vs. vancomycin: VRE 29, ratio of MIC of vancomycin and MIC of analogue
Procedure, shortened: as §1

[5] = test system: human T-lymphocyte (CEM) cells; experiment: Cytostatic activity, CEM cell proliferation; type: cell-based; conditions: mean ± SD of three experiments; highest concentration tested 250 µM; 3 days; read-out: Toxicity (IC50) CEM
Procedure, shortened: as §2

S. aureus VRSA = experiment: MIC, broth microdilution, vancomycin-resistant S. aureus (VRSA); type: cell-based, Staphylococcus aureus; conditions: for MIC: Staphylococcus aureus VRSA, read-out: MIC; for MIC-fold improvement vs. vancomycin: VRSA, ratio of MIC of vancomycin and MIC of analogue
Procedure, shortened: as §1

SMILES	MIC (S. aureus VISA/HIP5827) [µM]	MIC-fold improvement vs. vancomycin (S. aureus VISA/HIP5827)	MIC-fold improvement vs. vancomycin (MRSA KS1)	MIC (MRSA KS1) [µM]	MIC (E. faecalis VRE 53) [µM]	MIC-fold improvement vs. vancomycin (E. faecalis VRE 53)	MIC (E. faecalis VRE 37) [µM]	MIC (E. faecalis VSE 1) [µM]	MIC-fold improvement vs. vancomycin (E. faecalis VSE 1)	MIC [1] [µM]	MIC-fold improvement vs. vancomycin [1]	IC50 [2] [µM]	MIC-fold improvement vs. vancomycin (MRSA KS89)	MIC (MRSA KS89) [µM]	MIC (E. faecalis VRE 6) [µM]	MIC-fold improvement vs. vancomycin (E. faecalis VRE 6)	IC50 [3] [µM]	MIC-fold improvement vs. vancomycin (MRSA KS2)	MIC (MRSA KS2) [µM]	MIC-fold improvement vs. vancomycin (MRSA KS6)	also measured
CN[C@H](CC(C)C)C(=O)N[C@H]1C(=O)N[C@@H](CC(N)=O)C(=O)N[C@H]2C(=O)N[C@H]3C(=O)N[C@H](C(=O)N[C@H](C(=O)NCC(=O)Nc4ccc(NS(=O)(=O)c5ccccc5)cc4)c4cc(O)cc(O)c4-c4cc3ccc4O)[C@H](O)c3ccc(c(Cl)c3)Oc3cc2cc(c3O[C@@H]2O[C@H](CO)[C@@H](O)[C@H](O)[C@H]2O[C@H]2C[C@](C)(N)[C@H](O)[C@H](C)O2)Oc2ccc(cc2Cl)[C@H]1O [Vanc-60]	0.78 (≈ 1.35 µg/mL)	8	2	0.39 (≈ 0.677 µg/mL)	12.5 (≈ 21.7 µg/mL)	32	25 (≈ 43.4 µg/mL)	0.39 (≈ 0.677 µg/mL)	4	0.39 (≈ 0.677 µg/mL)	2	> 250	2	0.39 (≈ 0.677 µg/mL)	12.5 (≈ 21.7 µg/mL)	16	75 ± 29	2	0.39 (≈ 0.677 µg/mL)	1	MIC-fold improvement vs. vancomycin (E. faecalis VRE 37; VRE 37, ratio of MIC of vancomycin and MIC of analogue): 16; MIC (MRSA KS6): 0.78 µM (≈ 1.35 µg/mL); IC50 [4]: 181 µM; MIC (E. faecalis VRE 29): 12.5 µM (≈ 21.7 µg/mL); MIC-fold improvement vs. vancomycin (E. faecalis VRE 29): 32; IC50 [5]: 219 ± 44 µM; MIC (S. aureus VRSA): 0.39 µM (≈ 0.677 µg/mL); MIC-fold improvement vs. vancomycin (S. aureus VRSA): 256
CN[C@H](CC(C)C)C(=O)N[C@H]1C(=O)N[C@@H](CC(N)=O)C(=O)N[C@H]2C(=O)N[C@H]3C(=O)N[C@H](C(=O)N[C@H](C(=O)NCC(=O)Nc4ccc(NS(=O)(=O)c5ccc(Cl)cc5Cl)cc4)c4cc(O)cc(O)c4-c4cc3ccc4O)[C@H](O)c3ccc(c(Cl)c3)Oc3cc2cc(c3O[C@@H]2O[C@H](CO)[C@@H](O)[C@H](O)[C@H]2O[C@H]2C[C@](C)(N)[C@H](O)[C@H](C)O2)Oc2ccc(cc2Cl)[C@H]1O [Vanc-61]	0.78 (≈ 1.41 µg/mL)	8	2	0.39 (≈ 0.704 µg/mL)	6.25 (≈ 11.3 µg/mL)	64	12.5 (≈ 22.6 µg/mL)	0.39 (≈ 0.704 µg/mL)	4	0.20 (≈ 0.361 µg/mL)	4	≥ 250	2	0.39 (≈ 0.704 µg/mL)	3.13 (≈ 5.65 µg/mL)	64	87 ± 37	4	0.20 (≈ 0.361 µg/mL)	2	MIC (MRSA KS6): 0.39 µM (≈ 0.704 µg/mL); IC50 [4]: 196 µM; MIC (E. faecalis VRE 29): 6.25 µM (≈ 11.3 µg/mL); MIC-fold improvement vs. vancomycin (E. faecalis VRE 29): 64; IC50 [5]: ≥ 250 µM; MIC (S. aureus VRSA): 0.39 µM (≈ 0.704 µg/mL); MIC-fold improvement vs. vancomycin (S. aureus VRSA): 256
